The text below walks through data of patent US20230151003A1, “COMPOUNDS AND METHODS OF USE” (Exelixis, Inc., priority 2020, published 2023).

One experiment concerns the target T1, Mer (Homo sapiens, UniProt Q12866).
T1 construct: host or cells: 293A cells (Thermo Fisher #R70507)
T1 sequence (Q12866 21-999): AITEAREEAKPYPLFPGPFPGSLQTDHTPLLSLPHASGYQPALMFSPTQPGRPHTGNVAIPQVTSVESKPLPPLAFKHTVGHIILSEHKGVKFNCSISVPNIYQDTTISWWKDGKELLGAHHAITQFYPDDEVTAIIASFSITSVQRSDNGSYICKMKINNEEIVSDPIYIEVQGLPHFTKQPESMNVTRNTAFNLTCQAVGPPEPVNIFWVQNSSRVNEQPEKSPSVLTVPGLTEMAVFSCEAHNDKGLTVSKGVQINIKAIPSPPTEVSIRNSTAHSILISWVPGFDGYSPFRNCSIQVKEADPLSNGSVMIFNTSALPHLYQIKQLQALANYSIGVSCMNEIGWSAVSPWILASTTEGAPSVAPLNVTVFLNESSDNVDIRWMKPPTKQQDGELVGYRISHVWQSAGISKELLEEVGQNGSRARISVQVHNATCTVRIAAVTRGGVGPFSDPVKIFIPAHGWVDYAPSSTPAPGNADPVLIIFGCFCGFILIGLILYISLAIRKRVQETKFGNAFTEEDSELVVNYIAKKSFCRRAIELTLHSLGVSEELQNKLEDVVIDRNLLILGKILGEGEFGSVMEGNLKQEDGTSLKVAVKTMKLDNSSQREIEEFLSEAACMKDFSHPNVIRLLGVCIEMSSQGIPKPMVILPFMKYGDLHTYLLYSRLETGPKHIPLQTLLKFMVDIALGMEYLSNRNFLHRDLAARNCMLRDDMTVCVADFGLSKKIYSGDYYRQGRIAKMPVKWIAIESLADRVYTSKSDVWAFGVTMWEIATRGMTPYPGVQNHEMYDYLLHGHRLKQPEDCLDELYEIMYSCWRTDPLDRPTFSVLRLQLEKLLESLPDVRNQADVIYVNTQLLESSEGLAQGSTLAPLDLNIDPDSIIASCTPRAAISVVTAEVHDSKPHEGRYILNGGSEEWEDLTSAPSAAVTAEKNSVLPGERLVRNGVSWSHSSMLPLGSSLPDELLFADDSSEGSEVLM
As to the kind of experiment: Mer autophosphorylation ELISA in transient transfected 293A cells. Particulars: Table 3 Cellular Activities; MERTK-transfected 293A cells, phospho-Mer ELISA. Format: cell-based. An outline of the steps: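 293A cells transiently transfected with human MERTK DNA, replated after 24 h, then treated 1 h with 8-point compound dilutions in serum-free medium (0.3% DMSO). Lysates assayed by phospho-Mer sandwich ELISA against phospho-Mer standard; DMSO = 100%, reference inhibitor = 0% activity; IC50 by 4-parameter logistic fit.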

A further experiment addresses KDR (Homo sapiens, UniProt P35968). As to the kind of experiment: KDR autophosphorylation ELISA in HUVEC cells. Format: cell-based. Also on record: endogenous in cells; host or cells: HUVEC (Lonza #C2519A). Particulars: Table 3 Cellular Activities, VEGF165-stimulated, phospho-KDR ELISA. An outline of the steps: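 HUVEC, 24 h serum-free starvation; cpd 8-pt dilution, 0.3% DMSO final, 1 h; VEGF165 100 ng/mL, 5 min; cold lysis; phospho-KDR ELISA; IC50, 4PL.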
Background: An ELISA detects its analyte on a solid surface through an enzyme-linked reagent.

Structures can show the parent of a compound that is named as a salt. Where only a bound is given, the exact number is not on record here.

Chain of KDR (P35968 20-1356): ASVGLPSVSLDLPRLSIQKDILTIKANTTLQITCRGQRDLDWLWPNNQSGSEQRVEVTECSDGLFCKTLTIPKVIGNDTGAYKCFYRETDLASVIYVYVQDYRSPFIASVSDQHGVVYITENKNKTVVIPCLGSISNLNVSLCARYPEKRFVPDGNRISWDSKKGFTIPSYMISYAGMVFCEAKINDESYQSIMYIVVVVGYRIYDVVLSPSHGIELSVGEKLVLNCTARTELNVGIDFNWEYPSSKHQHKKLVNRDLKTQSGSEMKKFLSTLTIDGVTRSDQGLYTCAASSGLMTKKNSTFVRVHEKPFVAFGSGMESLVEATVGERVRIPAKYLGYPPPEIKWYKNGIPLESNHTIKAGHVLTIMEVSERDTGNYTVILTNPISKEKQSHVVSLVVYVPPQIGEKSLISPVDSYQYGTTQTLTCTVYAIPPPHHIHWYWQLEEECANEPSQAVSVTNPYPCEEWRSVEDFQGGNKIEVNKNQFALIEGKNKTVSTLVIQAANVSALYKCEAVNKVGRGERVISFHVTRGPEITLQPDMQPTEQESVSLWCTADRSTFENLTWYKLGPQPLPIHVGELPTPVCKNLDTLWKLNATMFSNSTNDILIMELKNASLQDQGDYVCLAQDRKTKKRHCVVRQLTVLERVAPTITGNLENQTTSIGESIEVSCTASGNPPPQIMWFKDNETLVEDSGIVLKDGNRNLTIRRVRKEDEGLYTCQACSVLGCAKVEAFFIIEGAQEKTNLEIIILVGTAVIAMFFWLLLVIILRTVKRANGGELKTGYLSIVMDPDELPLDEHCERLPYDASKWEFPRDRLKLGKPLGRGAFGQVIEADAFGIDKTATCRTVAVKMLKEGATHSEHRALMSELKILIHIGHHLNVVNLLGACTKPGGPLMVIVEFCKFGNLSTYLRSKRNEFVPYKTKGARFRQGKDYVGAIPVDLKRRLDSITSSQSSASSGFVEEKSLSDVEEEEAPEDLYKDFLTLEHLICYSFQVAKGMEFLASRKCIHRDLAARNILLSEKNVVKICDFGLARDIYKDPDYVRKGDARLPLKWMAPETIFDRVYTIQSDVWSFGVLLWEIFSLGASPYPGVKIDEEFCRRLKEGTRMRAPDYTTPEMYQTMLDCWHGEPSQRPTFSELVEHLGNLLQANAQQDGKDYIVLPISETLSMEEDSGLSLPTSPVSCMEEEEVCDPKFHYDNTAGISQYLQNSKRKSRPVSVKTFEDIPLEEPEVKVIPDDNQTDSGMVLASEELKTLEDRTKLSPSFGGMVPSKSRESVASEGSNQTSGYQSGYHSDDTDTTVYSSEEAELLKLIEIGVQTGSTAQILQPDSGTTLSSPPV

One may read the IC50 as the concentration at which inhibition is half-maximal. A low value points to inhibition by little substance. Take `COc1cc2nccc(Oc3ccc(NC(=O)c4cnc(C)c(-c5ccc(C(C)C)o5)c4O)cc3F)c2nc1OC` [Compound 154, N-[4-[(6,7-Dimethoxy-1,5-naphthyridin-4-yl)oxy]-3-fluorophenyl]-4-hydroxy-6-methyl-5-(5-propan-2-ylfuran-2-yl)pyridine-3-carboxamide]: the IC50 against Mer and against KDR was not above 100 nM each time.
In the case of `COc1cc2nccc(Oc3ccc(NC(=O)c4cc(Br)c(C)n(-c5ccc(F)cn5)c4=O)cc3F)c2nc1OC` [Compound 55, 5-Bromo-N-[4-[(6,7-dimethoxy-1,5-naphthyridin-4-yl)oxy]-3-fluorophenyl]-1-(5-fluoropyridin-2-yl)-6-methyl-2-oxopyridine-3-carboxamide], the values for the IC50 on Mer and at KDR were not above 100 nM and 300 to 1000 nM, respectively.
Take `COc1cc2nccc(Oc3ccc(NC(=O)c4c(C)nc(C)c(-c5ccsc5)c4O)cc3F)c2nc1OC` [Compound 106]: the IC50 against Mer and against KDR was not above 100 nM in each case.
On to `COc1cnc2c(Oc3ccc(NC(=O)c4cnc(C)c(-c5ccoc5)c4O)cc3F)ccnc2c1` [Compound 99, N-[3-Fluoro-4-[(7-methoxy-1,5-naphthyridin-4-yl)oxy]phenyl]-5-(3-furyl)-4-hydroxy-6-methyl-pyridine-3-carboxamide], for which the IC50 on Mer and on KDR was not above 100 nM each time.
As to `COCc1nc(C)c(-c2ccc(C)o2)c(O)c1C(=O)Nc1ccc(Oc2ccnc3cc(OC)c(OC)nc23)c(F)c1` [Compound 117, N-[4-[(6,7-Dimethoxy-1,5-naphthyridin-4-yl)oxy]-3-fluorophenyl]-4-hydroxy-2-(methoxymethyl)-6-methyl-5-(5-methylfuran-2-yl)pyridine-3-carboxamide], the IC50 against Mer and against KDR was not above 100 nM in each case.
Take `COc1cc2nccc(Oc3ccc(NC(=O)c4cnc(C)c(-c5cnoc5)c4O)cc3F)c2nc1OC` [Compound 140, N-[4-[(6,7-Dimethoxy-1,5-naphthyridin-4-yl)oxy]-3-fluorophenyl]-4-hydroxy-6-methyl-5-(1,2-oxazol-4-yl)pyridine-3-carboxamide]: the IC50 against Mer and against KDR was not above 100 nM in each case.
On to `COc1cc2nccc(Oc3ccc(NC(=O)c4cnc(C)c(-c5cc(C(F)(F)F)nn5C)c4O)cc3F)c2nc1OC` [Compound 105], for which the half-inhibitory concentration (IC50) on Mer and on KDR was not above 100 nM in each case.
Regarding `COc1cnc2c(Oc3ccc(NC(=O)c4c(C)n(C)c(C)c(-c5cccs5)c4=O)cc3)ccnc2c1` [Compound 165, N-[4-[(7-Methoxy-1,5-naphthyridin-4-yl)oxy]phenyl]-1,2,6-trimethyl-4-oxo-5-thiophen-2-ylpyridine-3-carboxamide], the IC50 against Mer was not above 100 nM; on KDR, 300 to 1000 nM.
Turning to `COc1nc2c(Oc3ccc(NC(=O)c4c(C)n(C)c(C)c(-c5ccco5)c4=O)cc3F)ccnc2cc1OCCC1CCC1` [Compound 337, N-[4-[[7-(2-Cyclobutylethoxy)-6-methoxy-1,5-naphthyridin-4-yl]oxy]-3-fluorophenyl]-5-(furan-2-yl)-1,2,6-trimethyl-4-oxopyridine-3-carboxamide], the IC50 on Mer and against KDR was not above 100 nM in each case.
For `COc1cnc2c(Oc3ccc(NC(=O)c4cnc(C)c(-c5ccc(C)s5)c4O)cc3F)ccnc2c1` [Compound 101, N-[3-Fluoro-4-[(7-methoxy-1,5-naphthyridin-4-yl)oxy]phenyl]-4-hydroxy-6-methyl-5-(5-methyl-2-thienyl) pyridine-3-carboxamide], the IC50 against Mer and on KDR was not above 100 nM each time.
As to `COc1cc2nccc(Oc3ccc(NC(=O)c4c(C)nc(C)c(-c5ccc(C)o5)c4O)cc3F)c2nc1OC` [Compound 110, N-[4-[(6,7-Dimethoxy-1,5-naphthyridin-4-yl)oxy]-3-fluoro-phenyl]-4-hydroxy-2,6-dimethyl-5-(5-methyl-2-furyl)pyridine-3-carboxamide], the IC50 at Mer and against KDR was not above 100 nM throughout.
Take `COc1cc2nccc(Oc3ccc(NC(=O)c4cnc(C)c(-c5cncs5)c4O)cc3F)c2nc1OC` [Compound 141, N-[4-[(6,7-Dimethoxy-1,5-naphthyridin-4-yl)oxy]-3-fluorophenyl]-4-hydroxy-6-methyl-5-(1,3-thiazol-5-yl)pyridine-3-carboxamide]: the IC50 on Mer and against KDR was not above 100 nM throughout.
On to `C=Cc1ccc(-c2c(C)ncc(C(=O)Nc3ccc(Oc4ccnc5cc(OC)c(OC)nc45)c(F)c3)c2O)o1` [Compound 151, N-[4-[(6,7-Dimethoxy-1,5-naphthyridin-4-yl)oxy]-3-fluorophenyl]-5-(5-ethenylfuran-2-yl)-4-hydroxy-6-methylpyridine-3-carboxamide], for which the IC50 against Mer and on KDR was not above 100 nM in each case.
`COc1cnc2c(Oc3ccc(NC(=O)c4cn(CCF)c(C)c(-c5ccc(C)s5)c4=O)cc3F)ccnc2c1` [Compound 329, 1-(2-Fluoroethyl)-N-[3-fluoro-4-[(7-methoxy-1,5-naphthyridin-4-yl)oxy]phenyl]-6-methyl-5-(5-methylthiophen-2-yl)-4-oxopyridine-3-carboxamide]: the IC50 was not above 100 nM against Mer and 300 to 1000 nM against KDR.
In the case of `COc1cc2nccc(Oc3ccc(NC(=O)c4cnc(C)c(-c5ccc(C6CC6)o5)c4O)cc3F)c2nc1OC` [Compound 155A, 5-(5-Cyclopropylfuran-2-yl)-N-[4-[(6,7-dimethoxy-1,5-naphthyridin-4-yl)oxy]-3-fluorophenyl]-4-hydroxy-6-methylpyridine-3-carboxamide hydrochloride], the IC50 on Mer and against KDR was not above 100 nM each time.
On to `COc1cnc2c(Oc3ccc(NC(=O)c4cnc(C)c(-c5cc(C)cs5)c4O)cc3F)ccnc2c1` [Compound 102, N-[3-Fluoro-4-[(7-methoxy-1,5-naphthyridin-4-yl)oxy]phenyl]-4-hydroxy-6-methyl-5-(4-methyl-2-thienyl) pyridine-3-carboxamide], for which the IC50 at Mer and on KDR was not above 100 nM in each case.
Regarding `COc1cc2nccc(Oc3ccc(NC(=O)c4cnc(C)c(-c5nccs5)c4O)cc3F)c2nc1OC` [Compound 143, N-[4-[(6,7-Dimethoxy-1,5-naphthyridin-4-yl)oxy]-3-fluorophenyl]-4-hydroxy-6-methyl-5-(1,3-thiazol-2-yl)pyridine-3-carboxamide], the IC50 on Mer and against KDR was not above 100 nM each time.
With `COc1cc2nccc(Oc3ccc(NC(=O)c4c(C)nc(C)c(-c5cc(C)nn5C)c4O)cc3F)c2nc1OC` [Compound 109, N-[4-[(6,7-Dimethoxy-1,5-naphthyridin-4-yl)oxy]-3-fluoro-phenyl]-5-(2,5-dimethylpyrazol-3-yl)-4-hydroxy-2,6-dimethyl-pyridine-3-carboxamide], the IC50 against Mer and at KDR was not above 100 nM throughout.
In the case of `COc1cc2nccc(Oc3ccc(NC(=O)c4c(C)nc(C)c(-c5sccc5C)c4O)cc3F)c2nc1OC` [Compound 139, N-[4-[(6,7-Dimethoxy-1,5-naphthyridin-4-yl)oxy]-3-fluorophenyl]-4-hydroxy-2,6-dimethyl-5-(3-methylthiophen-2-yl)pyridine-3-carboxamide], the IC50 against Mer and at KDR was not above 100 nM throughout.
